Each structure is given as a SMILES string. Active and inactive are the calls of the source.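 How the source made its calls: active means compounds giving half or more protection of infected cells from virus-caused growth loss, again on retest; inactive means the rest.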 Where a SMILES comes first, the peptide text is derived from it. The star is where a group is joined. Cbz = O=C(OCc1ccccc1)* Where only a bound is given, the exact number is not on record here.

The subject of this assay is CEM cells HIV-1 protection, formazan growth assay. Description: NCI AIDS Antiviral Assay. Particulars: for IC50: measured here: growth of uninfected CEM cells. In short, it runs like this: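 Category rules: moderately active means at least 50% protection on retest, and confirmed active means 100% protection reproducibly. The underlying data came from a formazan growth assay in HIV-1-infected CEM cells.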

In the case of `OCCN(CCO)CN(CO)c1nc(N(CO)CN(CCO)CCO)nc(N(CO)CN(CCO)CCO)n1`, the EC50 is over 437 µM and the IC50 is over 437 µM. For `C=CC1(C)CCC2C(=CCC3C2(C)CC(O)C(O)C3(C)COC2OC(C(=O)O)C(O)C(O)C2O)C1` (configuration not stated) (tested in a mixture with another compound), the EC50 is over 100 µM and the IC50 is over 100 µM. Regarding `CSc1nc(NC2OC(COC(C)=O)C(OC(C)=O)C(OC(C)=O)C2OC(C)=O)c(N=CC=Nc2c(NC3OC(COC(C)=O)C(OC(C)=O)C(OC(C)=O)C3OC(C)=O)nc(SC)n(C)c2=O)c(=O)n1C` (configuration not stated), the result was inactive. In the case of `COC(=O)C(C(=O)C(=O)Nc1cccc(OC)c1)c1cnc2ccccc2n1` (configuration not stated), the EC50 is over 69.2 µM and the IC50 is over 69.2 µM. `CCOC(=O)CNC(=O)C(CC(C)C)NC(=O)C1CCCN1C(=O)OCc1ccccc1` (stereo not drawn) (Cbz-Pro-Leu-Gly-OEt; configuration not given here): the EC50 is over 562 µM and the concentration for half-maximal inhibition (IC50) amounted to 37.2 µM.

On to `CC(/C(=N/NC(=O)C(N)=O)c1c(Cl)ccc(Cl)c1O)C1(O)C(=O)Nc2ccccc21` (configuration not stated), for which the EC50 was over 11.5 µM and the half-inhibitory concentration (IC50) was over 11.5 µM. Consider `COc1ccc2cc(C(C)C(O)c3cc(F)c(F)c(F)c3F)ccc2c1` (configuration not stated), for which the EC50 was 126 µM and the half-inhibitory concentration (IC50) is over 200 µM.

Turning to `CC(C)(C)[Si](C)(C)OCC1OC(n2cc(I)c(N)nc2=O)C(O[Si](C)(C)C(C)(C)C)C1O[Si](C)(C)C(C)(C)C` (configuration not stated), the EC50 is over 200 µM and the half-maximal inhibitory concentration (IC50) came out at 6.76 µM.

For the molecule `OCCN(/N=C\c1ccc2ccccc2c1)C1=NCCN1`, the EC50 was over 200 µM and the IC50 came out at 31.6 µM. For `Cc1c2ccccc2nc(CS(=O)c2ccccc2)[n+]1[O-]` (configuration not stated) the same measures were over 200 µM and 186 µM. The corresponding values for `c1cc(-c2cn3ccsc3n2)ccn1` are over 447 µM and 186 µM. As to `CN1C(=S)C2=C(c3ccccc3)N(C)C(=S)C2=C1c1ccccc1`, the EC50 was 102 µM and the IC50 was over 200 µM. As for `CC(=O)N/N=C(/C)c1cccs1`, the EC50 is over 200 µM and the half-maximal inhibitory concentration (IC50) is over 200 µM. In the case of `OC1CCC(COC(c2ccccc2)(c2ccccc2)c2ccccc2)O1` (configuration not stated), the EC50 is over 200 µM and the IC50 was 24.5 µM. Consider `C[N+]12CN3CN(CP(C3)C1)C2`, for which the EC50 was over 832 µM. As to `Cc1nn(C(=O)Cc2ccccc2)c2c1C(c1ccc(Cl)cc1)SC(N)=N2` (configuration not stated), the EC50 was 110 µM and the IC50 was found to be 158 µM.

As for `CCOC(=O)/C(C[C@H]1OC(C)(C)O[C@@H]1[C@H]1COC(C)(C)O1)=N/O`, the EC50 is over 200 µM and the 50% inhibitory concentration (IC50) is over 200 µM. Consider `NC1=NN(c2ccccc2)C(=O)C1/C(=N\NC(=O)c1cc2ccccc2cc1O)C(=O)Nc1ccc(Cl)cc1` (configuration not stated), for which the EC50 was over 6.92 µM and the IC50 is over 6.92 µM. On to `CCOC(=O)/C(Br)=C1\OC(=O)c2ccccc2-c2ccccc21`, for which the EC50 was over 19.5 µM and the IC50 is over 19.5 µM.

Consider `CCC[CH2][Sn]([Cl])([CH2]CCC)[CH2]CCC`, for which the result was inactive. Regarding `COC(=O)C(NC(=O)C(C)NC(=O)C1CCCN1C(=O)CNC(=O)C(CO)NC(=O)C(NC(=O)OCc1ccccc1)C(C)O)C(C)O` (configuration not stated) (Cbz-TSGPAT-OMe; configuration not given here), the EC50 was over 363 µM and the half-inhibitory concentration (IC50) was over 363 µM. On to `Cc1c2ccccc2nc(CSCCC(C)C)[n+]1[O-]`, for which the EC50 is 28.8 µM and the IC50 was 135 µM. In the case of `O=C1NC(O)c2cc(Cl)ccc2O1` (configuration not stated), the result was inactive. Same read-out and setting: to `O=C(CC1C(=O)Nc2ccccc2S1=O)Nc1ccc(Cl)cc1` (configuration not stated) belongs “inactive”; to `Cc1cc2c(=O)cc(-c3ccc(C(F)(F)F)cc3)oc2c(C(=O)O)c1C`, “inactive”. Take `COC(=O)c1ccc(N2CC=C(C)C(c3ccc(OC)cc3)O2)cc1` (configuration not stated): the EC50 was over 15.5 µM and the half-maximal inhibitory concentration (IC50) is over 15.5 µM. Take `N#CSCc1nc2ccc(Cl)cc2c(-c2ccccc2)[n+]1[O-]`: the EC50 is over 55 µM and the IC50 worked out at 8.91 µM.

As to `COc1ccc2oc(=O)c(-c3csc(C)n3)cc2c1`, the EC50 is over 151 µM and the IC50 turned out to be 138 µM.

On to `O=C1CN2Cc3cc(N4CCOCC4)ccc3N=C2N1`, for which the EC50 was over 257 µM and the IC50 is 40.7 µM.

As for `O=C1/C(=N\S(=O)(=O)c2ccccc2)C([n+]2ccc(Cc3ccccc3)cc2)=C([O-])c2ccccc21`, the EC50 is over 200 µM and the 50% inhibitory concentration (IC50) was 2.63 µM. The corresponding values for `COc1c(Cl)cc(C(=CCCNC(=O)C[C@H]2CC[C@@]3(C)[C@@H](CC[C@@H]4[C@@H]3CC[C@]3(C)[C@@H](CC(=O)NCCC=C(c5cc(Cl)c(OC)c(C(=O)O)c5)c5cc(Cl)c(OC)c(C(=O)O)c5)CC[C@@H]43)C2)c2cc(Cl)c(OC)c(C(=O)O)c2)cc1C(=O)O` are over 200 µM and 148 µM. The corresponding values for `CN(CCC#N)c1ccc(/C=C(\C#N)c2cccc(C(F)(F)F)c2)cc1` are over 200 µM and 3.63 µM. The corresponding values for `O=P(O)(Cc1ccccc1)c1ccccc1-c1ccccc1` are over 200 µM and 49 µM. As for `O=P1(c2ccccc2)c2ccccc2-c2ccccc21`, the EC50 was over 200 µM and the IC50 amounted to 102 µM.

Take `C=CCCCCCCCC(O)C1C[C@H](O)C(CCCCC)O1` (some centres not stated): the result was inactive.

For the molecule `CC(C)(O)[C@H]1OC2CC[C@@]3(C)C(O)(CC[C@H]4Cc5c([nH]c6ccccc56)C43C)C2=CC1=O` (some centres not stated), the EC50 is over 200 µM and the concentration for half-maximal inhibition (IC50) was found to be 13.8 µM.

Take `O=[N+]([O-])C1(CO)COC2(OC1)c1ccccc1-c1ccccc12`: the outcome was inactive.

As for `CCOC(=O)/C(C(N)=O)=C(/O)c1cnccn1`, the EC50 was over 200 µM and the concentration for half-maximal inhibition (IC50) is over 200 µM. As for `CCOC(=O)/C(C#N)=C/c1ccc(-c2ccccc2)cc1`, the EC50 is over 25.7 µM and the IC50 was over 25.7 µM. As to `OCC1C2CCC3(OCCO3)C12` (configuration not stated), the EC50 was over 200 µM and the half-inhibitory concentration (IC50) was over 200 µM. In the case of `N#CC1(C#N)C(c2ccccc2)C=CC(c2ccc([N+](=O)[O-])cc2)C1(C#N)C#N` (configuration not stated), the EC50 is over 200 µM and the IC50 came out at 3.55 µM. The corresponding values for `[N-]=[N+]=NC1=C(C(=O)c2ccccc2)C(=O)c2cccc3cccc1c23` are over 100 µM and 49 µM. Consider `Cc1cc(NS(=O)(=O)c2ccc(NC(=O)c3ccc(Cl)c4c(Nc5ccc(S(=O)(=O)Nc6cc(C)on6)cc5)c5ccccc5nc34)cc2)no1`, for which the EC50 is over 47.9 µM and the IC50 is over 47.9 µM.

With `CCOC(=O)C(CCC1=NC(C)(C)CC(C)O1)C(=O)OCC` (configuration not stated), the EC50 was over 200 µM and the IC50 was over 200 µM. `COC(=O)[C@H](NC(=O)OC(C)(C)C)[C@H]1COC(C)(C)O1`: the EC50 was over 200 µM and the IC50 is over 200 µM.

Consider `O=C(NNC(=O)c1ccc([N+](=O)[O-])cc1)c1ccc([N+](=O)[O-])cc1`, for which the EC50 was over 200 µM and the IC50 was over 200 µM. Regarding `C/C=C/C=Nc1c(C#N)c2n(c1C(=O)Nc1ccc(OC)cc1)CCC2`, the EC50 was over 200 µM and the 50% inhibitory concentration (IC50) was over 200 µM. Take `C/C(=N\NS(=O)(=O)c1ccccc1)c1ccc(Cl)c(Cl)c1`: the result was inactive. For `ClC(Cl)(Cl)C1CCOC1n1nnc2ccccc21` (configuration not stated), the result was inactive. Consider `O=C1/C(=C/c2ccccc2F)Cc2ccccc21`, for which the EC50 is over 21.9 µM and the concentration for half-maximal inhibition (IC50) is over 21.9 µM. As to `O=C1OCC2(CO1)CC1C=CC2C1` (configuration not stated), the EC50 is over 200 µM and the concentration for half-maximal inhibition (IC50) was over 200 µM. Take `COc1ccc(/C=C2\C=C3OCOC3=CC2=O)cc1`: the EC50 is over 10.7 µM and the half-inhibitory concentration (IC50) is over 10.7 µM. As to `CC(=O)NNc1nc(C)c(C(/C=C/c2ccc(Cl)cc2)=N/NC(=S)NN)s1`, the EC50 is over 44.7 µM and the IC50 was over 44.7 µM. Regarding `COc1cc(CNc2nc3ccc(C(F)(F)F)cc3nc2-c2ccccc2)cc(OC)c1OC`, the EC50 was over 11.2 µM and the IC50 is over 11.2 µM. As to `O/N=C1\CCc2cc3c(cc21)CCC3`, the EC50 is over 200 µM and the half-maximal inhibitory concentration (IC50) turned out to be 155 µM. For `CCCCC(=O)N1SC(NC(=O)OC)=Nc2ccccc21` the same measures were over 309 µM and 6.76 µM.

Consider `CN(c1nc(=[N+](C)C)ss1)C1CCCCC1`, for which the outcome was inactive. Consider `COc1c(Cl)cc(S(=O)OC)cc1Cl` (configuration not stated), for which the outcome was inactive. Turning to `Nc1c(-c2ccc(Cl)cc2Cl)[n+]([O-])c2ccccc2[n+]1[O-]`, the outcome was inactive. Take `CS[C@]12[C@@H]3C(=O)N(C)C(=O)[C@@H]3[C@](C)(C(=O)N1C)C(=O)N2c1ccccc1`: the EC50 was over 200 µM and the IC50 is over 200 µM. As for `CC(=O)C(CN(CC(C)C)CC(C)C)C(c1ccccc1)c1c(O)c2ccccc2oc1=O` (configuration not stated), the EC50 is over 28.2 µM and the IC50 was over 28.2 µM. On to `Nc1ncnc2c1ncn2C1CC(O)C(CO)O1` (configuration not stated), for which the EC50 was over 1000 µM and the IC50 was 186 µM. For `CC(=O)OCC1OC(n2cc(F)c(=O)[nH]c2=O)C(NC(=O)N(CCCl)N=O)C(OC(C)=O)C1OC(C)=O` (configuration not stated) the same measures were over 457 µM and 66.1 µM. For `Cc1cc(=O)[nH]c2c3c(ccc12)OC(C)(C)C=C3` the same measures were over 200 µM and 3.72 µM. For `COc1ccc(C2=CC(=O)CCC2)cc1` the same measures were over 178 µM and over 178 µM. `CCC[CH2][Sn]([CH2]CCC)([O]C(=O)C(N)CSC)[O]C(=O)C(N)CSC` (configuration not stated): the EC50 is over 18.6 µM and the half-maximal inhibitory concentration (IC50) is 0.129 µM. The corresponding values for `COC/C=C\[C@]1(O)CCCC[C@@H]1CC(OC)OC` are over 200 µM and 30.9 µM. For `CC1(C)N=C(C(=O)c2ccccc2)N(O)C1(O)c1ccccc1` (configuration not stated) the same measures were over 200 µM and 135 µM. Consider `C=Cc1c(C#N)nc(C)c(C)c1-c1ccc(OC)c(OC)c1OCc1ccccc1`, for which the EC50 was over 200 µM and the IC50 was found to be 14.1 µM.

`O=C(NC1CCCCC1NC(c1ccccc1)(c1ccccc1)c1ccccc1)C(=O)NC1CCCCC1NC(c1ccccc1)(c1ccccc1)c1ccccc1` (configuration not stated): the EC50 is over 100 µM and the IC50 is over 100 µM.

Source of the values: PubChem BioAssay AID179 (DTP/NCI, 2004).
